Where “and” joins values, the source holds several entries; their conditions need not be identical. Equal values may be shown once.
Columns and labels:
[1] = PFAS levels in serum samples of airport employees (LC/MS/MS); settings: for Serum level in the first samples, median (range) / Relative composition of PFAS in serum, molar concentration basis / Relative composition of PFAS in serum, weight basis / Serum concentration, molar basis / Serum concentration, weight basis: all 26 airport employees; for Relative composition of PFAS in serum, molar concentration basis / Relative composition of PFAS in serum, weight basis: first serum samples; for Serum concentration, molar basis / Serum concentration, weight basis: median of first serum samples
Summary of the method: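 LC/MS/MS quantification (BEH C18, 5 mM ammonium acetate water:methanol to methanol gradient) after protein precipitation of 25 μL serum with isotopically labeled internal standards, FBS-matrix calibration. Samples stored at −80°C, collected at monthly intervals from September 2018 and run together in a single batch.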

[2] = Individual serum elimination rate and half-life (linear regression per employee); settings: for Elimination rate / HL (half-life) / half-life: individual estimate; for half-life: human, serum, oral, HL (half-life);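 for HL (half-life): half-life in years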
Summary of the method: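 One-compartment, first-order model: for each employee and PFAS, the slope β of log serum concentration versus elapsed days (from clean water supply, over five samplings) gave k = −β and half-life = ln2/k. A positive slope left the half-life undetermined.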

[3] = 1st sampling (September 2018), count 17
[4] = 2nd sampling (October 2018), count 17
[5] = 3rd sampling (November, 2018), count 17
[6] = 4th sampling (December 2018), count 16
[7] = 5th sampling (January 2019), count 16
[8] = employees participated in first blood sampling and repeated blood and urine sampling, N=17
[9] = employees participated in first blood sampling only, N=9, 11-14 d after end of exposure

## O=C(O)C(F)(F)C(F)(F)C(F)(F)C(F)(F)C(F)(F)F [PFHxA, perfluorohexanoic acid]
[1]; [3]
  Serum PFAS level, 25 percentile: 0.24
  Serum PFAS level, 75 percentile: 0.48
  Serum PFAS level, Max: 0.92
  Serum PFAS level, Median: 0.37
  Serum PFAS level, Min: 0.16
[1]; [4]
  Serum PFAS level, 25 percentile: 0.26
  Serum PFAS level, 75 percentile: 0.51
  Serum PFAS level, Max: 1.2
  Serum PFAS level, Median: 0.31
  Serum PFAS level, Min: 0.14
[1]; [5]
  Serum PFAS level, 25 percentile: 0.27
  Serum PFAS level, 75 percentile: 0.56
  Serum PFAS level, Max: 1.4
  Serum PFAS level, Median: 0.34
  Serum PFAS level, Min: 0.13
[1]; [6]
  Serum PFAS level, 25 percentile: 0.22
  Serum PFAS level, 75 percentile: 0.46
  Serum PFAS level, Max: 0.87
  Serum PFAS level, Median: 0.30
  Serum PFAS level, Min: 0.08
[1]; [7]
  Serum PFAS level, 25 percentile: 0.21
  Serum PFAS level, 75 percentile: 0.52
  Serum PFAS level, Max: 1.2
  Serum PFAS level, Median: 0.33
  Serum PFAS level, Min: 0.11
[1]
  Serum level in the first samples, median (range): 0.38 (0.16–1.1) ng/mL
  Relative composition of PFAS in serum, molar concentration basis: 0.4%
  Relative composition of PFAS in serum, weight basis: 0.3%
  Serum concentration, molar basis: 0.0012
  Serum concentration, weight basis: 0.38
[1]; [8]
  PFAS in first serum sample, median (range): 0.37 (0.16–0.92) ng/mL
[1]; [9]
  PFAS in first serum sample, median (range): 0.38 (0.23–1.1) ng/mL
[1]; females (N=7)
  Initial serum PFAS level, max: 0.54 ng/mL
  Initial serum PFAS level, median: 0.24 ng/mL
  Initial serum PFAS level, min: 0.19 ng/mL
[1]; males (N=19)
  Initial serum PFAS level, Max: 1.1 ng/mL
  Initial serum PFAS level, Min: 0.16 ng/mL
  Initial serum PFAS level, median: 0.42 ng/mL
[2]; 5-month follow-up, 17 employees
  Individuals without decrement in serum concentration (no individual estimated half-life): 53%
[2]; subject 1, 5 samples
  Elimination rate: 0.2 yearly
  HL (half-life): 4.1 year
[2]; subject 2, 5 samples
  Elimination rate: −0.1 yearly
[2]; subject 3, 5 samples
  Elimination rate: 1.6 yearly
  HL (half-life): 0.4 year
[2]; subject 4, 5 samples
  Elimination rate: −0.6 yearly
[2]; subject 5, 5 samples
  Elimination rate: −1.7 yearly
[2]; subject 6, 4 samples
  Elimination rate: −1.6 yearly
[2]; subject 7, 5 samples
  Elimination rate: 1.5 yearly
  HL (half-life): 0.5 year
[2]; subject 8, 5 samples
  Elimination rate: −0.7 yearly
[2]; subject 9, 5 samples
  Elimination rate: −0.2 yearly
[2]; subject 10, 5 samples
  Elimination rate: 0.4 yearly
  HL (half-life): 1.9 year
[2]; subject 11, 5 samples
  Elimination rate: 2.8 yearly
  HL (half-life): 0.2 year
[2]; subject 12, 5 samples
  Elimination rate: −0.3 yearly
[2]; subject 13, 5 samples
  Elimination rate: −0.7 yearly
[2]; subject 14, 4 samples
  Elimination rate: −0.5 yearly
[2]; subject 15, 5 samples
  Elimination rate: 2.7 yearly
  HL (half-life): 0.3 year
[2]; subject 16, 5 samples
  Elimination rate: 1.1 yearly
  HL (half-life): 0.6 year
[2]; subject 17, 5 samples
  Elimination rate: 2.5 yearly
  HL (half-life): 0.3 year

## O=S(=O)(O)C(F)(F)C(F)(F)C(F)(F)C(F)(F)C(F)(F)C(F)(F)F [PFHxS, perfluorohexane sulfonic acid]
[1]; [3]
  Serum PFAS level, 25 percentile: 63
  Serum PFAS level, 75 percentile: 155
  Serum PFAS level, Max: 402
  Serum PFAS level, Median: 133
  Serum PFAS level, Min: 21
[1]; [4]
  Serum PFAS level, 25 percentile: 57
  Serum PFAS level, 75 percentile: 144
  Serum PFAS level, Max: 363
  Serum PFAS level, Median: 122
  Serum PFAS level, Min: 18
[1]; [5]
  Serum PFAS level, 25 percentile: 57
  Serum PFAS level, 75 percentile: 150
  Serum PFAS level, Max: 392
  Serum PFAS level, Median: 119
  Serum PFAS level, Min: 20
[1]; [6]
  Serum PFAS level, 25 percentile: 50
  Serum PFAS level, 75 percentile: 146
  Serum PFAS level, Max: 381
  Serum PFAS level, Median: 109
  Serum PFAS level, Min: 17
[1]; [7]
  Serum PFAS level, 25 percentile: 64
  Serum PFAS level, 75 percentile: 153
  Serum PFAS level, Max: 399
  Serum PFAS level, Median: 117
  Serum PFAS level, Min: 42
[1]
  Serum level in the first samples, median (range): 76 (17–402) ng/mL
  Relative composition of PFAS in serum, molar concentration basis: 70.4% and 70%
  Relative composition of PFAS in serum, weight basis: 68.9%
  Serum concentration, molar basis: 0.19
  Serum concentration, weight basis: 76
[1]; [8]
  PFAS in first serum sample, median (range): 133 (21–402) ng/mL
[1]; [9]
  PFAS in first serum sample, median (range): 60 (17–85) ng/mL
[1]; females (N=7)
  Initial serum PFAS level, max: 183 ng/mL
  Initial serum PFAS level, median: 74 ng/mL
  Initial serum PFAS level, min: 21 ng/mL
[1]; males (N=19)
  Initial serum PFAS level, Max: 402 ng/mL
  Initial serum PFAS level, Min: 17 ng/mL
  Initial serum PFAS level, median: 78 ng/mL
[1]; second to fifth samplings, 17 airport employees
  Serum level, median (range): 118 (17–399) ng/mL
[2]; subject 1, 5 samples
  half-life: 1280 days
  Elimination rate: 0.2 yearly
[2]; subject 2, 5 samples
  half-life: 730 days
  Elimination rate: 0.3 yearly
[2]; subject 3, 5 samples
  half-life: 548 days
  Elimination rate: 0.5 yearly
[2]; subject 4, 5 samples
  half-life: 3510 days
  Elimination rate: 0.1 yearly
[2]; subject 5, 5 samples
  half-life: 1720 days
  Elimination rate: 0.1 yearly
[2]; subject 7, 5 samples
  half-life: 840 days
  Elimination rate: 0.3 yearly
[2]; subject 10, 5 samples
  half-life: 694 days
  Elimination rate: 0.4 yearly
[2]; subject 11, 5 samples
  half-life: 1100 days
  Elimination rate: 0.2 yearly
[2]; subject 12, 5 samples
  half-life: 584 days
  Elimination rate: 0.4 yearly
[2]; subject 13, 5 samples
  half-life: 511 days
  Elimination rate: 0.5 yearly
[2]; subject 14, 4 samples
  half-life: 438 days
  Elimination rate: 0.6 yearly
[2]; subject 15, 5 samples
  half-life: 804 days
  Elimination rate: 0.3 yearly
[2]; subject 16, 5 samples
  half-life: 6940 days
  Elimination rate: 0.04 yearly
[2]; subject 17, 5 samples
  half-life: 584 days
  Elimination rate: 0.4 yearly
[2]; subject 6, 4 samples
  Elimination rate: −0.1 yearly
[2]; subject 8, 5 samples
  Elimination rate: −0.01 yearly
[2]; subject 9, 5 samples
  Elimination rate: −0.04 yearly
